Source: patent publication US4879385A, “Substituted hydroxyalkyl-azoles and their use as antimycotics” (Bayer Aktiengesellschaft, priority 1982, dated 1989)

How the values were obtained:
[1] = test system: fungi (antimycotic); settings: prior art DE-OS 2,623,129 and DE-OS 2,851,086; cited from earlier work
[2] = test system: Candida; test: Antimycotic in vivo activity (oral) in candidosis of mice; settings: mice SPF-CF, i.v. Candida; oral 25-100 mg/kg 1 h before and 7 h after infection
Experimental: Mice of the SPF-CF type were infected intravenously with 1-2×10^6logarithmically growing Candida cells, which were suspended in physiological sodium chloride solution. The animals were treated orally one hour before and seven hours after the infection, with, in each case, 25-100 mg/kg of body weight of the formulations.
Untreated animals died 3 to 6 days after infection. The survival rate on the 6th day after infection was about 5% in the case of untreated control animals.

[3] = test system: dermatophytes, moulds and yeasts; test: Antimycotic in vitro activity, series dilution test (overall comparison); type: cell-based; settings: 20° C., 24 to 96 hours
Experimental: The in vitro tests were carried out in series dilution test with germ inocula of an average of 5×10^4 germs/ml of substrate. The nutrient medium was (a) for dermatophytes and moulds: Sabourand's milieu d'epreuve and (b) for yeasts: meat extract/glucose broth. The incubation temperature was 20° C. and the duration of incubation was 24 to 96 hours in the case of yeasts, and 96 hours in the case of dermatophytes and moulds.

OC(Cc1ccc(Cl)cc1)(Cn1ccnc1)c1ccc(Cl)cc1 (stereo not drawn) [(A), 1,2-bis(4-chlorophenyl)-2-hydroxy-3-(imidazol-1-yl)-propane]
antimycotic properties [1]: good antimycotic properties

OC(Cn1ccnc1)(c1cccc(Cl)c1)c1cccc(Cl)c1 [(B), 1,1-bis(3-chlorophenyl)-1-hydroxy-2-(imidazol-1-yl)-ethane]
antimycotic properties [1]: good antimycotic properties

OC(Cc1ccccc1)(Cn1cncn1)c1ccc(-c2ccccc2)cc1 (stereo not drawn) [(C), 2-(4-biphenyl)-2 hydroxy-1-phenyl-3-(1,2,4-triazol-1-yl)-propane]
antimycotic properties [1]: good antimycotic properties

CC(C)(Cc1ccc(Cl)cc1)C(O)(Cn1ccnc1)c1ccc(Cl)cc1 (stereo not drawn) [Example 1, 2,4-bis(4-chlorophenyl)-3,3-dimethyl-1-(imidazol-1-yl)-butan-2-ol]
action in vivo compared with compounds (A), (B) and (C) [2]: better action than the compounds (A), (B) and (C) | antimycotic action in vitro compared with compounds (A), (B) and (C) [3]: better antimycotic action than the compounds (A), (B) and (C)

CC(C)(Oc1ccc(Cl)cc1)C(O)(Cn1cncn1)c1ccc(Cl)cc1.Cl (stereo not drawn) [Example 2, 3-(4-chlorophenoxy)-2-(4-chlorophenyl)-3-methyl-1-(1,2,4-triazol-1-yl)-butan-2-ol hydrochloride]
antimycotic action in vitro compared with compounds (A), (B) and (C) [3]: better antimycotic action than the compounds (A), (B) and (C)

CC(C)(c1ccc(Cl)cc1)C(O)(Cn1ccnc1)c1ccc(Cl)cc1 (stereo not drawn) [Example 3]
antimycotic action in vitro compared with compounds (A), (B) and (C) [3]: better antimycotic action than the compounds (A), (B) and (C)

CC(C)(Cc1ccc(Cl)cc1)C(O)(Cn1cncn1)c1ccc(Cl)cc1 (stereo not drawn) [Example 4]
action in vivo compared with compounds (A), (B) and (C) [2]: better action than the compounds (A), (B) and (C) | antimycotic action in vitro compared with compounds (A), (B) and (C) [3]: better antimycotic action than the compounds (A), (B) and (C)

CC(C)(c1ccc(Cl)cc1)C(O)(Cn1cncn1)c1ccc(Cl)cc1 (stereo not drawn) [Example 5]
antimycotic action in vitro compared with compounds (A), (B) and (C) [3]: better antimycotic action than the compounds (A), (B) and (C)

CC(C)(Cc1ccccc1)C(O)(Cn1cncn1)c1ccc(F)cc1 (stereo not drawn) [Example 6]
antimycotic action in vitro compared with compounds (A), (B) and (C) [3]: better antimycotic action than the compounds (A), (B) and (C)

CC(C)(Cc1ccc(Cl)cc1)C(O)(Cn1ccnc1)c1ccc(F)cc1 (stereo not drawn) [Example 8]
action in vivo compared with compounds (A), (B) and (C) [2]: better action than the compounds (A), (B) and (C) | antimycotic action in vitro compared with compounds (A), (B) and (C) [3]: better antimycotic action than the compounds (A), (B) and (C)

CC(C)(Cc1ccc(Cl)cc1)C(O)(Cn1cncn1)c1ccc(F)cc1 (stereo not drawn) [Example 9]
action in vivo compared with compounds (A), (B) and (C) [2]: better action than the compounds (A), (B) and (C) | antimycotic action in vitro compared with compounds (A), (B) and (C) [3]: better antimycotic action than the compounds (A), (B) and (C)

CC(C)(Cc1ccc(F)cc1)C(O)(Cn1ccnc1)c1ccc(Cl)cc1 (stereo not drawn) [Example 10]
antimycotic action in vitro compared with compounds (A), (B) and (C) [3]: better antimycotic action than the compounds (A), (B) and (C)

CC(C)(Cc1ccc(F)cc1)C(O)(Cn1cncn1)c1ccc(Cl)cc1 (stereo not drawn) [Example 11]
action in vivo compared with compounds (A), (B) and (C) [2]: better action than the compounds (A), (B) and (C) | antimycotic action in vitro compared with compounds (A), (B) and (C) [3]: better antimycotic action than the compounds (A), (B) and (C)

CC(C)(Cc1ccc(Cl)cc1Cl)C(O)(Cn1ccnc1)c1ccc(F)cc1 (stereo not drawn) [Example 12]
antimycotic action in vitro compared with compounds (A), (B) and (C) [3]: better antimycotic action than the compounds (A), (B) and (C)

CC(C)(Sc1ccc(Cl)cc1)C(O)(Cn1cncn1)c1ccc(Cl)cc1 (stereo not drawn) [Example 14]
antimycotic action in vitro compared with compounds (A), (B) and (C) [3]: better antimycotic action than the compounds (A), (B) and (C)

CC(C)(Cc1ccc(F)cc1)C(O)(Cn1cncn1)c1ccccc1 (stereo not drawn) [Example 15]
antimycotic action in vitro compared with compounds (A), (B) and (C) [3]: better antimycotic action than the compounds (A), (B) and (C)

CC(C)(Sc1ccc(Cl)cc1)C(O)(Cn1ccnc1)c1ccc(Cl)cc1 (stereo not drawn) [Example 16]
antimycotic action in vitro compared with compounds (A), (B) and (C) [3]: better antimycotic action than the compounds (A), (B) and (C)

CC(C)(Oc1ccc(Cl)cc1Cl)C(O)(Cn1ccnc1)c1ccc(Cl)cc1 (stereo not drawn) [Example 17]
action in vivo compared with compounds (A), (B) and (C) [2]: better action than the compounds (A), (B) and (C)

CC(C)(Oc1ccc(Cl)cc1Cl)C(O)(Cn1cncn1)c1ccc(Cl)cc1 (stereo not drawn) [Example 18]
action in vivo compared with compounds (A), (B) and (C) [2]: better action than the compounds (A), (B) and (C) | antimycotic action in vitro compared with compounds (A), (B) and (C) [3]: better antimycotic action than the compounds (A), (B) and (C)

CC(C)(Oc1ccccc1Cl)C(O)(Cn1cncn1)c1ccc(Cl)cc1 (stereo not drawn) [Example 19]
antimycotic action in vitro compared with compounds (A), (B) and (C) [3]: better antimycotic action than the compounds (A), (B) and (C)

CC(C)(Oc1ccccc1Cl)C(O)(Cn1ccnc1)c1ccc(Cl)cc1 (stereo not drawn) [Example 20]
antimycotic action in vitro compared with compounds (A), (B) and (C) [3]: better antimycotic action than the compounds (A), (B) and (C)

Cc1cc(Cl)ccc1OC(C)(C)C(O)(Cn1cncn1)c1ccc(Cl)cc1 (stereo not drawn) [Example 21]
antimycotic action in vitro compared with compounds (A), (B) and (C) [3]: better antimycotic action than the compounds (A), (B) and (C)

CC(C)(Oc1ccccc1)C(O)(Cn1cncn1)c1ccc(Cl)cc1 (stereo not drawn) [Example 22]
antimycotic action in vitro compared with compounds (A), (B) and (C) [3]: better antimycotic action than the compounds (A), (B) and (C)

CC(C)(Oc1ccccc1)C(O)(Cn1ccnc1)c1ccc(Cl)cc1 (stereo not drawn) [Example 23]
antimycotic action in vitro compared with compounds (A), (B) and (C) [3]: better antimycotic action than the compounds (A), (B) and (C)

Cc1ccc(C(C)(C)C(O)(Cn2ccnc2)c2ccc(Cl)cc2)cc1 (stereo not drawn) [Example 25]
antimycotic action in vitro compared with compounds (A), (B) and (C) [3]: better antimycotic action than the compounds (A), (B) and (C)

CCC(C)(COc1ccc(Cl)cc1)C(O)(Cn1cncn1)c1ccc(Cl)cc1 (stereo not drawn) [Example 26]
action in vivo compared with compounds (A), (B) and (C) [2]: better action than the compounds (A), (B) and (C) | antimycotic action in vitro compared with compounds (A), (B) and (C) [3]: better antimycotic action than the compounds (A), (B) and (C)

CCC(C)(Oc1ccc(Cl)cc1)C(O)(Cn1cncn1)c1ccc(Cl)cc1 (stereo not drawn) [Example 27]
action in vivo compared with compounds (A), (B) and (C) [2]: better action than the compounds (A), (B) and (C)

CC(C)(Cc1ccc(F)cc1)C(O)(Cn1cncn1)c1ccc(F)cc1 (stereo not drawn) [Example 28]
action in vivo compared with compounds (A), (B) and (C) [2]: better action than the compounds (A), (B) and (C) | antimycotic action in vitro compared with compounds (A), (B) and (C) [3]: better antimycotic action than the compounds (A), (B) and (C)

CC(C)(Oc1ccc(Cl)cc1)C(O)(Cn1cncn1)c1ccc(F)cc1 (stereo not drawn) [Example 29]
action in vivo compared with compounds (A), (B) and (C) [2]: better action than the compounds (A), (B) and (C) | antimycotic action in vitro compared with compounds (A), (B) and (C) [3]: better antimycotic action than the compounds (A), (B) and (C)

CC(C)(Oc1ccc(F)cc1)C(O)(Cn1cncn1)c1ccc(F)cc1 (stereo not drawn) [Example 30]
action in vivo compared with compounds (A), (B) and (C) [2]: better action than the compounds (A), (B) and (C)

CC(C)(Oc1ccc(Cl)cc1)C(O)(Cn1ccnc1)c1ccc(F)cc1 (stereo not drawn) [Example 31]
action in vivo compared with compounds (A), (B) and (C) [2]: better action than the compounds (A), (B) and (C)

CC(C)(Oc1ccc(F)cc1)C(O)(Cn1ccnc1)c1ccc(F)cc1 (stereo not drawn) [Example 32]
action in vivo compared with compounds (A), (B) and (C) [2]: better action than the compounds (A), (B) and (C)

CC(C)(Cc1ccc(F)cc1)C(O)(Cn1ccnc1)c1ccc(F)cc1 (stereo not drawn) [Example 33]
action in vivo compared with compounds (A), (B) and (C) [2]: better action than the compounds (A), (B) and (C)

CCC(C)(Oc1ccc(F)cc1)C(O)(Cn1cncn1)c1ccc(F)cc1 (stereo not drawn) [Example 34]
action in vivo compared with compounds (A), (B) and (C) [2]: better action than the compounds (A), (B) and (C)

CCC(C)(Oc1ccc(Cl)cc1)C(O)(Cn1cncn1)c1ccc(F)cc1 (stereo not drawn) [Example 35]
action in vivo compared with compounds (A), (B) and (C) [2]: better action than the compounds (A), (B) and (C) | antimycotic action in vitro compared with compounds (A), (B) and (C) [3]: better antimycotic action than the compounds (A), (B) and (C)
